Data taken from ChEMBL document CHEMBL1201862, “PubChem BioAssay data set” (2004).
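96-well plates; 48 h exposure; 5 concentrations. Endpoints by linear interpolation between flanking doses. Not reached: highest tested concentration assigned. Abbreviation: GI50, concentration required for 50% inhibition of growth.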 Active and inactive are the calls of the source. No stated cut-off is given here; in the data, active = GI50 up to about 1.1 µM and inactive = higher.

What was measured:
Assay in all cases: NCI tumour cell line growth inhibition, 48 h
786-0 = test system: 786-0
A549 = test system: A549
ACHN = test system: ACHN
BT-549 = test system: BT-549
CAKI-1 = test system: CAKI-1
CCRF-CEM = test system: CCRF-CEM
COLO 205 = test system: COLO 205
EKVX = test system: EKVX
HCC 2998 = test system: HCC 2998
HCT-116 = test system: HCT-116
HCT-15 = test system: HCT-15
HOP-62 = test system: HOP-62
HT-29 = test system: HT-29
Hs-578T = test system: Hs-578T
IGROV-1 = test system: IGROV-1
K562 = test system: K562
KM12 = test system: KM12
LOX IMVI = test system: LOX IMVI
M14 = test system: M14
MCF7 = test system: MCF7
MDA-MB-231 = test system: MDA-MB-231
MDA-MB-435 = test system: MDA-MB-435
MDA-N = test system: MDA-N
MOLT-4 = test system: MOLT-4
Malme-3M = test system: Malme-3M
NCI-H226 = test system: NCI-H226
NCI-H23 = test system: NCI-H23
NCI-H460 = test system: NCI-H460
NCI-H522 = test system: NCI-H522
NCI/ADR-RES = test system: NCI/ADR-RES
OVCAR-3 = test system: OVCAR-3
OVCAR-4 = test system: OVCAR-4
OVCAR-5 = test system: OVCAR-5
OVCAR-8 = test system: OVCAR-8
PC-3 = test system: PC-3
RPMI-8226 = test system: RPMI-8226
RXF 393 = test system: RXF 393
SF-268 = test system: SF-268
SF-295 = test system: SF-295
SF-539 = test system: SF-539
SK-MEL-28 = test system: SK-MEL-28
SK-MEL-2 = test system: SK-MEL-2
SK-MEL-5 = test system: SK-MEL-5
SK-OV-3 = test system: SK-OV-3
SN12C = test system: SN12C
SNB-19 = test system: SNB-19
SNB-75 = test system: SNB-75
SR = test system: SR
SW-620 = test system: SW-620
T47D = test system: T47D
TK-10 = test system: TK-10
U-251 = test system: U-251
UACC-257 = test system: UACC-257
UACC-62 = test system: UACC-62
UO-31 = test system: UO-31
A498 = test system: A498
HL-60 = test system: HL-60
HOP-92 = test system: HOP-92

Question: O=C(CSc1nc2nncc-2c(O)[nH]1)c1ccc(Cl)cc1 was tested. Which GI50 (786-0) did it give?
Answer: > 100 µM (inactive)

Question: What about the GI50 (A549) of the same compound?
Answer: > 100 µM (inactive)

Question: What about the GI50 (ACHN) of the same compound?
Answer: > 100 µM (inactive)

Question: And the GI50 (BT-549)?
Answer: > 100 µM (inactive)

Question: What about the GI50 (CAKI-1) of the same compound?
Answer: > 100 µM (inactive)

Question: And the GI50 (CCRF-CEM)?
Answer: > 100 µM (inactive)

Question: And the GI50 (COLO 205)?
Answer: > 100 µM (inactive)

Question: And the GI50 (EKVX)?
Answer: 66.5 µM (inactive)

Question: What about the GI50 (HCC 2998) of the same compound?
Answer: > 100 µM (inactive)

Question: And the GI50 (HCT-116)?
Answer: > 100 µM (inactive)

Question: And the GI50 (HCT-15)?
Answer: 93.8 µM

Question: What about the GI50 (HOP-62) of the same compound?
Answer: > 100 µM (inactive)

Question: What about the GI50 (HT-29) of the same compound?
Answer: > 100 µM (inactive)

Question: And the GI50 (Hs-578T)?
Answer: > 100 µM (inactive)

Question: What about the GI50 (IGROV-1) of the same compound?
Answer: > 100 µM (inactive)

Question: What about the GI50 (K562) of the same compound?
Answer: > 100 µM (inactive)

Question: And the GI50 (KM12)?
Answer: > 100 µM (inactive)

Question: And the GI50 (LOX IMVI)?
Answer: > 100 µM (inactive)

Question: And the GI50 (M14)?
Answer: > 100 µM (inactive)

Question: What about the GI50 (MCF7) of the same compound?
Answer: > 100 µM (inactive)

Question: What about the GI50 (MDA-MB-231) of the same compound?
Answer: > 100 µM (inactive)

Question: And the GI50 (MDA-MB-435)?
Answer: > 100 µM (inactive)

Question: What about the GI50 (MDA-N) of the same compound?
Answer: > 100 µM (inactive)

Question: And the GI50 (MOLT-4)?
Answer: > 100 µM (inactive)

Question: And the GI50 (Malme-3M)?
Answer: > 100 µM (inactive)

Question: What about the GI50 (NCI-H226) of the same compound?
Answer: > 100 µM (inactive)

Question: What about the GI50 (NCI-H23) of the same compound?
Answer: > 100 µM (inactive)

Question: And the GI50 (NCI-H460)?
Answer: > 100 µM (inactive)

Question: And the GI50 (NCI-H522)?
Answer: > 100 µM (inactive)

Question: And the GI50 (NCI/ADR-RES)?
Answer: > 100 µM (inactive)

Question: What about the GI50 (OVCAR-3) of the same compound?
Answer: > 100 µM (inactive)

Question: And the GI50 (OVCAR-4)?
Answer: > 100 µM (inactive)

Question: And the GI50 (OVCAR-5)?
Answer: > 100 µM (inactive)

Question: And the GI50 (OVCAR-8)?
Answer: > 100 µM (inactive)

Question: What about the GI50 (PC-3) of the same compound?
Answer: > 100 µM (inactive)

Question: And the GI50 (RPMI-8226)?
Answer: > 100 µM (inactive)

Question: And the GI50 (RXF 393)?
Answer: > 100 µM (inactive)

Question: What about the GI50 (SF-268) of the same compound?
Answer: > 100 µM (inactive)

Question: And the GI50 (SF-295)?
Answer: > 100 µM (inactive)

Question: What about the GI50 (SF-539) of the same compound?
Answer: > 100 µM (inactive)

Question: What about the GI50 (SK-MEL-28) of the same compound?
Answer: > 100 µM (inactive)

Question: What about the GI50 (SK-MEL-2) of the same compound?
Answer: 75.3 µM (inactive)

Question: And the GI50 (SK-MEL-5)?
Answer: > 100 µM (inactive)

Question: What about the GI50 (SK-OV-3) of the same compound?
Answer: > 100 µM (inactive)

Question: What about the GI50 (SN12C) of the same compound?
Answer: > 100 µM (inactive)

Question: And the GI50 (SNB-19)?
Answer: > 100 µM (inactive)

Question: And the GI50 (SNB-75)?
Answer: 0.246 µM (active)

Question: And the GI50 (SR)?
Answer: > 100 µM (inactive)

Question: And the GI50 (SW-620)?
Answer: > 100 µM (inactive)

Question: What about the GI50 (T47D) of the same compound?
Answer: > 100 µM (inactive)

Question: What about the GI50 (TK-10) of the same compound?
Answer: > 100 µM (inactive)

Question: And the GI50 (U-251)?
Answer: > 100 µM (inactive)

Question: What about the GI50 (UACC-257) of the same compound?
Answer: > 100 µM (inactive)

Question: What about the GI50 (UACC-62) of the same compound?
Answer: > 100 µM (inactive)

Question: And the GI50 (UO-31)?
Answer: > 100 µM (inactive)

Question: What does the source list for C=CCOn1c(C=C)nc2c(C)cccc21?
Answer: GI50 (786-0): 2.18 µM (inactive); GI50 (A498): 5.66 µM (inactive); GI50 (A549): 3.38 µM (inactive); GI50 (ACHN): 2.62 µM (inactive); GI50 (BT-549): 5.16 µM (inactive); GI50 (CAKI-1): 2.06 µM (inactive); GI50 (CCRF-CEM): 1.33 µM (inactive); GI50 (COLO 205): 1.95 µM (inactive); GI50 (EKVX): 13.5 µM (inactive); GI50 (HCC 2998): 6.08 µM (inactive); GI50 (HCT-116): 2.01 µM (inactive); GI50 (HCT-15): 3.07 µM; GI50 (HL-60): 1.98 µM (inactive); GI50 (HOP-62): 3.77 µM (inactive); GI50 (HOP-92): 8.32 µM (inactive); GI50 (HT-29): 3.36 µM (inactive); GI50 (Hs-578T): 4.98 µM (inactive); GI50 (IGROV-1): 7.35 µM (inactive); GI50 (K562): 3.57 µM (inactive); GI50 (KM12): 3.41 µM (inactive); GI50 (LOX IMVI): 2.9 µM (inactive); GI50 (M14): 3.61 µM (inactive); GI50 (MCF7): 2.92 µM (inactive); GI50 (MDA-MB-231): 3.83 µM (inactive); GI50 (MDA-MB-435): 1.63 µM (inactive); GI50 (MDA-N): 3.13 µM (inactive); GI50 (MOLT-4): 3.64 µM (inactive); GI50 (Malme-3M): 11.6 µM (inactive); GI50 (NCI-H226): 5.47 µM (inactive); GI50 (NCI-H23): 7.74 µM (inactive); GI50 (NCI-H460): 2.32 µM (inactive); GI50 (NCI-H522): 2.29 µM (inactive); GI50 (NCI/ADR-RES): 3.12 µM (inactive); GI50 (OVCAR-3): 2.48 µM (inactive); GI50 (OVCAR-4): 8.89 µM (inactive); GI50 (OVCAR-5): 7.03 µM (inactive); GI50 (OVCAR-8): 2.85 µM (inactive); GI50 (PC-3): 3.08 µM (inactive); GI50 (RPMI-8226): 2.43 µM (inactive); GI50 (SF-268): 3.89 µM (inactive); GI50 (SF-295): 5.58 µM (inactive); GI50 (SK-MEL-28): 10.6 µM (inactive); GI50 (SK-MEL-2): 2.21 µM (inactive); GI50 (SK-MEL-5): 3.89 µM (inactive); GI50 (SK-OV-3): 2.4 µM (inactive); GI50 (SN12C): 3.63 µM (inactive); GI50 (SNB-19): 5.2 µM (inactive); GI50 (SNB-75): 3.59 µM (inactive); GI50 (SR): 2.46 µM (inactive); GI50 (SW-620): 3.2 µM (inactive); GI50 (T47D): 1.99 µM (inactive); GI50 (TK-10): 2.63 µM (inactive); GI50 (U-251): 1.98 µM (inactive); GI50 (UACC-257): 2.99 µM (inactive); GI50 (UACC-62): 2.56 µM (inactive); GI50 (UO-31): 2.43 µM (inactive)
